The target of experiment [1] is T1, acetylcholine nicotinic receptor (Rattus norvegicus, UniProt P09483+P12390).
T1 construct: rat cortex as the tissue substrate; from tissue; host or cells: rat cortex
The experiment can be described thus: Nicotinic receptor binding, [3H]-NMCI radioligand, rat cortex (Table 6). Here is the method:
7-Aza-bicyclo[2.2.1]-heptanes and -heptenes were evaluated for their ability to bind to the acetylcholine nicotinic receptor using a standard binding assay, e.g. X. Zhang and A. Nordberg, Arch. Pharmacol., 348, 28 (1993); R. E. Middleton and J. B. Cohen, Biochemistry, 30, 6987 (1991), with nicotine sulfate as the reference compound, rat cortex as the tissue substrate, and a [^3 H]-NMCI radioligand.

The nature of experiment [2]: Tail-flick assay (Tables 7 and 8, species not stated per value). The format is in vivo, mice and rats. Conditions: for ED50: Mus musculus, sc, 5 min, read-out: Tail-Flick Assay ED50; for Tail-Flick Assay % Effect after 5 min: Table 7, 5 min; for Tail-Flick Assay % Effect after 5 min / Tail-Flick Assay % Effect after 60 min: head also prints ED50 (mg/kg); for Tail-Flick Assay % Effect after 60 min: Table 7, 60 min. The protocol:
(§1) Female CD-1 mice (20-25 g, Charles River Labs) and male CD rats (300-400 g, Charles River Labs) were housed in groups of two and five, respectively. Animals were given food and water ad libitum. Most studies were performed using groups of 5 animals per treatment unless otherwise noted.
(§2) Antinociceptive effects (i.e., analgesia) of test compounds in mice and rats were measured by the tail-flick test using a tail-flick analgesia meter (EMDIE Instrument Co.). A maximum latency of 10 sec was imposed if no response occurred within that time. Antinociceptive activity, measured as % MPE, was calculated as [(test-control)/(10-control)×100)].
(§3) Duration of compound and (-)-nicotine-induced antinociception was assessed in mice by measuring antinociception at 2, 5, 10, 20 min after compound (20 μg/kg, s.c.) or nicotine (5 mg/kg, s.c.).
Mice (7/group) or rats were pretreated i.v. (0.9% saline or antagonist, mecamylamine, hexamethonium, atropine, naloxone or yohimbine) 10 minutes before administration of compound or nicotine at different doses. […]
Background: In hot-plate and tail-flick tests a longer latency is read as antinociception.

The conditions of experiment [3]: opiate antagonist naloxone; cited from earlier work.
Experiment [4] concerns nicotinic cholinergic receptor. Conditions: in words; cited from earlier work.
Another experiment has as its system a4b2 subtype receptor. The following applies: in words; cited from earlier work.
Experiment [5] is described as follows: Straub-Tail assay (Table 5). It counts as in vivo. The text has this: A wide variety of biological assays have been used to evaluate the ability of a compound to act as an analgesic. Any of these known assays can be used to evaluate the analgesic ability of the compounds disclosed herein. The Straub-tail reaction, which is characteristic of opiate alkaloids, has been used as an assay for opiate agonists and antagonists. The assay is described in detail in Br. J. of Pharmacol. 1969, 36, 225. Another accepted assay for analgesic activity is the hot plate analgesia assay, described in J. of Pharmacol. Exp. Therap. 1953, 107, 385. An assay for the evaluation of the ability of a compound to bind to an opiate receptor is described in Mol. Pharmacol. 1974, 10, 868.
Table 5 provides the analgesic activity measured as ED50 (μg/Kg) for selected compounds disclosed herein, as determined using the Straub-Tail assay, as describe by J. Daily et al. J. Am. […] Chem. Soc. 1992, 114, 3475; T. Li, et al. Bioorganic and Medicinal Chemistry Letters 1993, 3, 2759.

The target in experiment [6] is T2, nicotinic cholinergic receptor (Rattus norvegicus, UniProt P09483+P12390).
T2 construct: A membrane fraction from rat brain cortex; tissue Harlan Laboratories; host or cells: rat brain cortex membranes
The experiment can be described thus: Competition with [3H](-)-cytisine for binding to rat cortex (brain) receptors (Tables 7, 8, 9). The text has this: [^3 -H](-)-Cytisine is a nicotinic cholinergic receptor ligand that binds with high affinity to the a4b2 subtype receptor, the major subtype in rodent brain accounting for >90% of (-)-nicotine binding sites (Flores, et al., 1992; Whiting, et al., 1992). This nicotinic receptor subtype is most sensitive to (-)-nicotine compared to other receptor subtypes (Connolly, et al., (1992). Compounds that compete with cytisine for the nicotinic cholineric receptor are considered nicotine receptor agonists.
A membrane fraction from rat brain cortex (Harlan Laboratories) was prepared using an adaptation of an established method (Pabreza, et al., 1991). Compound and [^3 H]-(-)-cytisine (New England Nuclear, 42 Ci/mmol) were mixed before addition of membrane (0.5 mg protein) and incubated in glass tubes for 75 minutes on ice; total assay volume was 0.24 ml. Parallel assays to determine nonspecific binding were incubated in the presence of 10 uM (-)-nicotine (Sigma). Bound radioactivity was isolated by vacuum filtration onto glass microfiber filters (Whatman, GF-B) using millipore tubs, followed by 3×4 ml buffer wash. Filters were prerinsed with 0.5% polyethyleneimine prior to sample filtration to reduce nonspecific binding. Bound radioactivity was quantitated by scintillation counting.

Experiment [7] can be described thus: Tail-flick assay, rat (Table 9). The format is in vivo. The following applies: sc, 5 min. The protocol:
as §1, §2
(§4) Mice (7/group) or rats were pretreated i.v. (0.9% saline or antagonist, mecamylamine, hexamethonium, atropine, naloxone or yohimbine) 10 minutes before administration of compound or nicotine at different doses. A control response (1.5-4 sec) was determined for each animal before treatment and test latencies were assessed at 5 minutes after compound administration (5 ml/kg, s.c.) or 2 min after nicotine (5 ml/kg, s.c.).

Experiment [8] is described as follows: Tail-flick assay, mouse (Table 9). The format is in vivo. Conditions: sc, 5 min. The protocol:
as §1, §2, §3, §4

[9] abbreviates: Table 7, rat brain cortex membranes, read-out: Nicotine Receptor Cytisine IC50.
[10] abbreviates: Table 9, read-out: rat brain, 3H-cytisine binding IC50.

Where two headings read alike, the source gives them in different places.

`N=CN1C2CCC1C(c1cccnc1)C2` (stereo not shown): the Inhibition % in experiment [1] (testing level 10^-9) is 5%.

As to `CN1C2CCC1C(c1ccc(Cl)nc1)C2` (stereo not shown), the Inhibition % in experiment [1] (testing level 10^-9) is on record as 22%; in [1] (testing level 10^-11), 5%.

For orientation: ED50 means the dose at which the effect has come halfway, by size or by number of responders. `c1ccc2nc(C3CC4CCC3N4)ccc2c1` (stereo not shown): the ED50 in experiment [2] is above 2 mg/kg.

On to `Clc1ccc([C@@H]2C[C@H]3CC[C@@H]2N3)cn1` (single isomer, unassigned) [epibatidine, exo-2-(2-chloro-5-pyridyl)-7-azabicyclo [2.2.1]heptane], for which the “reversal of Straub-tail effect by naloxone” value in experiment [3] is on record as “not reversed by the opiate antagonist naloxone”. Further, the “nicotinic cholinergic receptor agonism” value in experiment [4] is on record as “nicotinic cholinergic receptor agonist”.

Turning to `O=c1cccc2n1C[C@@H]1CNC[C@H]2C1` [[^3 -H](-)-Cytisine], the “affinity to a4b2 subtype receptor” value with a4b2 subtype receptor was “high affinity”.

Turning to `Fc1ccc([C@H]2C[C@H]3CC[C@@H]2N3)cn1` (relative stereo), in experiment [5] (read-out: ED50), the ED50 is around 0.01 mg/kg.

As to `N=CN1C2CCC1C(c1ccc(Cl)nc1)C2` (stereo not shown), the Inhibition % is recorded as 49% in experiment [1] (testing level 10^-9) and 22% in experiment [1] (testing level 10^-11).

By IC50 is commonly meant the concentration at which inhibition is half-maximal. With `Cc1nnc([C@H]2C[C@H]3CC[C@@H]2N3C)o1` (relative stereo), in [6] (setting [9]), the IC50 was 32000 nM. Further, in experiment [2], the “Tail-Flick Assay % Effect after 5 min” value is -2.9% and the “Tail-Flick Assay % Effect after 60 min” value is given as -3.6%.

Turning to `Cc1noc([C@@H]2C[C@H]3CC[C@@H]2N3C)n1` (single isomer, unassigned) [B], the IC50 in [6] (setting [10]) is 18 nM.

Regarding `N=CN1[C@@H]2CC[C@H]1[C@H](c1ccc(Cl)nc1)C2` (relative stereo), in experiment [5] (@ 100 (dose unit not given; column μg/Kg)), the “effect at 100” value amounted to 99%.

As to `Cc1cc(C2CC3CCC2N3)on1` (stereo not shown), the ED50 in experiment [2] was above 2 mg/kg.

With `Cc1nnc([C@@H]2C[C@H]3CC[C@@H]2N3C)o1` (relative stereo), the IC50 in [6] (setting [9]) amounted to 150 nM. In experiment [2], the “Tail-Flick Assay % Effect after 5 min” value is on record as 6.7% and the “Tail-Flick Assay % Effect after 60 min” value is 24.6%.

As for `Clc1ccc([C@H]2C[C@H]3CC[C@@H]2N3)cn1` (relative stereo), the ED50 in experiment [5] is above 0.1 mg/kg.

On to `Cc1noc([C@@H]2C[C@H]3CC[C@@H]2N3C)n1` (single isomer, unassigned) [A], for which, in experiment [6] (setting [10]), the IC50 worked out at 1400 nM.

Compound `Clc1ccc([C@@H]2C[C@H]3CC[C@@H]2N3)cn1` [d-epibatidine] registered an ED50 in experiment [5] of 0.0075 mg/kg.

For the compound `c1cncc(C2CC3CCC2N3)c1` (stereo not shown), the Inhibition % in [1] (testing level 10^-9) stood at 103%.

On to `C[N+]1(C)[C@@H]2CC[C@H]1[C@H](c1ccc(Cl)nc1)C2` (relative stereo), for which the ED50 in [5] (read-out: ED50) lay in the range of 0.1 to 0.2 mg/kg.

Turning to `Clc1ccc([C@@H]2C[C@H]3CC[C@@H]2N3CC2CC2)cn1` (relative stereo), the “effect at 1000 μg/Kg” value in experiment [5] (@ 1000 (μg/Kg)) came to 100%.

With `Cc1noc([C@@H]2C[C@H]3CC[C@@H]2N3C)n1` (relative stereo) [racemic A/B, (±)-exo-2-(3-methyl-1,2,4-oxadiazol-5-yl)-7-methyl-7-azabicyclo[2.2.1]heptane], in experiment [6] (setting [10]), the IC50 was determined as 100 nM. Also, the ED50 in experiment [7] was 2.2 mg/kg; in experiment [8] it was 0.2 mg/kg.

On to `Cc1cc(C2CC3CCC2N3C)on1` (stereo not shown), for which, in [2] (Table 8), the ED50 is around 1 mg/kg.

`Clc1ccc(C2CC3CCC2N3)cn1` (stereo not shown) [1-epibatidine] came in with an ED50 in experiment [5] of 0.009 mg/kg.

Consider `C[N+]1(C)C2CCC1C(c1ccc(Cl)nc1)C2` (stereo not shown), for which the Inhibition % in experiment [1] (testing level 10^-9) was 49%.

Values taken from patent publication US6060473A, “7-azabicyclo[2.2.1]-heptane and -heptene derivatives as cholinergic receptor ligands” (priority 1996, dated 2000).
